Measurements taken from ChEMBL document CHEMBL4507294, “Data for DCP probe MSD-CYP11B2” (2021).

Assays:
[1] = target: Activin receptor type-1B (Homo sapiens) (UniProt P36896); details: Compound concentration 1000.0 nM
[2] = target: Aurora kinase C (Homo sapiens) (UniProt Q9UQB9); details: Compound concentration 1000.0 nM
[3] = target: Calcium/calmodulin-dependent protein kinase type 1B (Homo sapiens) (UniProt Q6P2M8); details: Compound concentration 1000.0 nM
[4] = target: Cyclin-dependent kinase 11A (Homo sapiens) (UniProt Q9UQ88); details: Compound concentration 1000.0 nM
[5] = target: Cyclin-dependent kinase 2 (Homo sapiens) (UniProt P24941); details: Compound concentration 1000.0 nM
[6] = target: Serine/threonine-protein kinase Chk2 (Homo sapiens) (UniProt O96017); details: Compound concentration 1000.0 nM
[7] = target: Casein kinase I isoform gamma-3 (Homo sapiens) (UniProt Q9Y6M4); details: Compound concentration 1000.0 nM
[8] = target: Discoidin domain-containing receptor 2 (Homo sapiens) (UniProt Q16832); details: Compound concentration 1000.0 nM
[9] = target: Ephrin type-B receptor 3 (Homo sapiens) (UniProt P54753); details: Compound concentration 1000.0 nM
[10] = target: Mitogen-activated protein kinase 6 (Homo sapiens) (UniProt Q16659); details: Compound concentration 1000.0 nM
[11] = target: Mitogen-activated protein kinase 15 (Homo sapiens) (UniProt Q8TD08); details: Compound concentration 1000.0 nM
[12] = test system: Receptor-type tyrosine-protein kinase FLT3 (Homo sapiens), P36888 [UNDEFINED MUTATION]; details: Compound concentration 1000.0 nM
[13] = target: G protein-coupled receptor kinase 3 (Homo sapiens) (UniProt P35626); details: Compound concentration 1000.0 nM
[14] = target: Rhodopsin kinase GRK7 (Homo sapiens) (UniProt Q8WTQ7); details: Compound concentration 1000.0 nM
[15] = target: Mast/stem cell growth factor receptor Kit (Homo sapiens) (UniProt P10721); details: Compound concentration 1000.0 nM
[16] = target: Serine/threonine-protein kinase LATS2 (Homo sapiens) (UniProt Q9NRM7); details: Compound concentration 1000.0 nM
[17] = target: Serine/threonine-protein kinase MARK1 (Homo sapiens) (UniProt Q9P0L2); details: Compound concentration 1000.0 nM
[18] = target: Myosin-IIIa (Homo sapiens) (UniProt Q8NEV4); details: Compound concentration 1000.0 nM
[19] = target: Serine/threonine-protein kinase Nek1 (Homo sapiens) (UniProt Q96PY6); details: Compound concentration 1000.0 nM
[20] = target: Serine/threonine-protein kinase Nek6 (Homo sapiens) (UniProt Q9HC98); details: Compound concentration 1000.0 nM
[21] = target: Mitogen-activated protein kinase 13 (Homo sapiens) (UniProt O15264); details: Compound concentration 1000.0 nM
[22] = target: Cyclin-dependent kinase 16 (Homo sapiens) (UniProt Q00536); details: Compound concentration 1000.0 nM
[23] = test system: Phosphatidylinositol 4,5-bisphosphate 3-kinase catalytic subunit alpha isoform (Homo sapiens), P42336 [M1043I]; details: Compound concentration 1000.0 nM
[24] = target: Serine/threonine-protein kinase PLK2 (Homo sapiens) (UniProt Q9NYY3); details: Compound concentration 1000.0 nM
[25] = target: Protein kinase C delta type (Homo sapiens) (UniProt Q05655); details: Compound concentration 1000.0 nM
[26] = target: Protein kinase C epsilon type (Homo sapiens) (UniProt Q02156); details: Compound concentration 1000.0 nM
[27] = target: Serine/threonine-protein kinase D3 (Homo sapiens) (UniProt O94806); details: Compound concentration 1000.0 nM
[28] = target: Serine/threonine-protein kinase PRP4 homolog (Homo sapiens) (UniProt Q13523); details: Compound concentration 1000.0 nM
[29] = target: Uncharacterized serine/threonine-protein kinase SBK3 (Homo sapiens) (UniProt P0C264); details: Compound concentration 1000.0 nM
[30] = target: NUAK family SNF1-like kinase 2 (Homo sapiens) (UniProt Q9H093); details: Compound concentration 1000.0 nM
[31] = target: Serine/threonine-protein kinase TAO2 (Homo sapiens) (UniProt Q9UL54); details: Compound concentration 1000.0 nM
[32] = target: NT-3 growth factor receptor (Homo sapiens) (UniProt Q16288); details: Compound concentration 1000.0 nM
[33] = target: Transient receptor potential cation channel subfamily M member 6 (Homo sapiens) (UniProt Q9BX84); details: Compound concentration 1000.0 nM
[34] = target: Phosphatidylinositol 3-kinase catalytic subunit type 3 (Homo sapiens) (UniProt Q8NEB9); details: Compound concentration 1000.0 nM
[35] = target: T1, Muscarinic acetylcholine receptor M1 (Homo sapiens) (UniProt P11229); details: Compound concentration 10.0 uM
T1 sequence (whole entry): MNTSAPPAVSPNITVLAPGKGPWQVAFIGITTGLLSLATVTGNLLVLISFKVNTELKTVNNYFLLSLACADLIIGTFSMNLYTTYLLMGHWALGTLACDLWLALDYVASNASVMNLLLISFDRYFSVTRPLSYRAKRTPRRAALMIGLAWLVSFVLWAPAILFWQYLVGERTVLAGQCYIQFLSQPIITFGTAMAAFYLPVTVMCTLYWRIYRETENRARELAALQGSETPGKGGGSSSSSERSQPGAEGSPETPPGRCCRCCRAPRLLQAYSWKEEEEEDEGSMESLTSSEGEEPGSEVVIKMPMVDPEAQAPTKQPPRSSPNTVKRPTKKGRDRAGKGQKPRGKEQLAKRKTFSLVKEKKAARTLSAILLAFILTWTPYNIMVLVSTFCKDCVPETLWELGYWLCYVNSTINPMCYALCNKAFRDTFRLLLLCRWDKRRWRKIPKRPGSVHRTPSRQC

[36] = target: Sigma intracellular receptor 2 (Homo sapiens) (UniProt Q5BJF2); details: Compound concentration 10.0 uM
[37] = target: D(1A) dopamine receptor (Homo sapiens) (UniProt P21728); details: Compound concentration 10.0 uM

Sequence of Protein kinase C epsilon type (Homo sapiens) (Q02156 whole entry): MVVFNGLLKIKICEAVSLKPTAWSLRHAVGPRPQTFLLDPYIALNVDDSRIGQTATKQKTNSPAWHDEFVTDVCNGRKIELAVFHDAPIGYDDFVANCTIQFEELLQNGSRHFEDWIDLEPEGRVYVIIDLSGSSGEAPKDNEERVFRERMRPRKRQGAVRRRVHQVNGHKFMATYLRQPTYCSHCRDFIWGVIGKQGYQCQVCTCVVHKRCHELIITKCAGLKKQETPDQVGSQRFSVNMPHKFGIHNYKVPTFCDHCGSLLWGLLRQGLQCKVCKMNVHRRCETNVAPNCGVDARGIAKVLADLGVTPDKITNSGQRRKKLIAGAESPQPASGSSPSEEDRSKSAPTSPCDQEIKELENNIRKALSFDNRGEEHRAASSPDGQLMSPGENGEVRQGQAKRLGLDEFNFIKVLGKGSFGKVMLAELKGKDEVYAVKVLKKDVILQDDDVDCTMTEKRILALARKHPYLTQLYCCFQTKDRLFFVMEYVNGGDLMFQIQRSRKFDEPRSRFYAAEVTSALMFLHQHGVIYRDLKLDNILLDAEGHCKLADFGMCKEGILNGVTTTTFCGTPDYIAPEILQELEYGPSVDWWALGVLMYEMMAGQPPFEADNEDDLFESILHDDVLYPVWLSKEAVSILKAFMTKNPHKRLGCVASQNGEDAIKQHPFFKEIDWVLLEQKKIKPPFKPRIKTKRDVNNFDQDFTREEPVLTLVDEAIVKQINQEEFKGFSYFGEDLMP
Sequence of Serine/threonine-protein kinase LATS2 (Homo sapiens) (Q9NRM7 whole entry): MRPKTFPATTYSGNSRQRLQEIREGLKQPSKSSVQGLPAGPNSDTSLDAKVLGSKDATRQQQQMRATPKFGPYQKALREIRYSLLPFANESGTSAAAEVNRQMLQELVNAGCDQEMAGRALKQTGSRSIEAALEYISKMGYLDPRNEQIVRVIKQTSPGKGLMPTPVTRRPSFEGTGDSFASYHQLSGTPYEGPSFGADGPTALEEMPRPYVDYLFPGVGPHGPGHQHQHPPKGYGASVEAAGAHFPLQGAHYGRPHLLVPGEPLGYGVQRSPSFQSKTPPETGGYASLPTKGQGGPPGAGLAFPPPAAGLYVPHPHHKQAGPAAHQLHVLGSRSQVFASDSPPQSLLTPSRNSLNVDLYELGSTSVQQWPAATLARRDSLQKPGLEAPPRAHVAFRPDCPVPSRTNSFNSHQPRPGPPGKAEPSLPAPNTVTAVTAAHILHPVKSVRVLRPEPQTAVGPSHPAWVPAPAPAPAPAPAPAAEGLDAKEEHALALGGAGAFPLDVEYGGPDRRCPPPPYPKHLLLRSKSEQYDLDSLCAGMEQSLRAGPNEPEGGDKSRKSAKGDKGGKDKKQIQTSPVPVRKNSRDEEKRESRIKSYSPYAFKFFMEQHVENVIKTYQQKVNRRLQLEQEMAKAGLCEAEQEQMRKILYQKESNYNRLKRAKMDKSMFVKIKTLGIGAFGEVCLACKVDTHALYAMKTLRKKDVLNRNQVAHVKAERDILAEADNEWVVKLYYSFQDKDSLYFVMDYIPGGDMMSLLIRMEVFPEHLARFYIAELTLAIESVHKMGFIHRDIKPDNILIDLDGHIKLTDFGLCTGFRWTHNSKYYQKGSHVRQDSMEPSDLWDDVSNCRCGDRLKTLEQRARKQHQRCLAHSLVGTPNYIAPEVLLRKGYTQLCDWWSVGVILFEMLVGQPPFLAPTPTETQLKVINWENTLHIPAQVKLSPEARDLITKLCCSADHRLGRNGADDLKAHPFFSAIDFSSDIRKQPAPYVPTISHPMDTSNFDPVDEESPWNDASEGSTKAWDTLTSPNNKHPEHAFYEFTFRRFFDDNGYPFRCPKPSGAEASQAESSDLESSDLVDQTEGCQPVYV
Sequence of Serine/threonine-protein kinase Nek1 (Homo sapiens) (Q96PY6 whole entry): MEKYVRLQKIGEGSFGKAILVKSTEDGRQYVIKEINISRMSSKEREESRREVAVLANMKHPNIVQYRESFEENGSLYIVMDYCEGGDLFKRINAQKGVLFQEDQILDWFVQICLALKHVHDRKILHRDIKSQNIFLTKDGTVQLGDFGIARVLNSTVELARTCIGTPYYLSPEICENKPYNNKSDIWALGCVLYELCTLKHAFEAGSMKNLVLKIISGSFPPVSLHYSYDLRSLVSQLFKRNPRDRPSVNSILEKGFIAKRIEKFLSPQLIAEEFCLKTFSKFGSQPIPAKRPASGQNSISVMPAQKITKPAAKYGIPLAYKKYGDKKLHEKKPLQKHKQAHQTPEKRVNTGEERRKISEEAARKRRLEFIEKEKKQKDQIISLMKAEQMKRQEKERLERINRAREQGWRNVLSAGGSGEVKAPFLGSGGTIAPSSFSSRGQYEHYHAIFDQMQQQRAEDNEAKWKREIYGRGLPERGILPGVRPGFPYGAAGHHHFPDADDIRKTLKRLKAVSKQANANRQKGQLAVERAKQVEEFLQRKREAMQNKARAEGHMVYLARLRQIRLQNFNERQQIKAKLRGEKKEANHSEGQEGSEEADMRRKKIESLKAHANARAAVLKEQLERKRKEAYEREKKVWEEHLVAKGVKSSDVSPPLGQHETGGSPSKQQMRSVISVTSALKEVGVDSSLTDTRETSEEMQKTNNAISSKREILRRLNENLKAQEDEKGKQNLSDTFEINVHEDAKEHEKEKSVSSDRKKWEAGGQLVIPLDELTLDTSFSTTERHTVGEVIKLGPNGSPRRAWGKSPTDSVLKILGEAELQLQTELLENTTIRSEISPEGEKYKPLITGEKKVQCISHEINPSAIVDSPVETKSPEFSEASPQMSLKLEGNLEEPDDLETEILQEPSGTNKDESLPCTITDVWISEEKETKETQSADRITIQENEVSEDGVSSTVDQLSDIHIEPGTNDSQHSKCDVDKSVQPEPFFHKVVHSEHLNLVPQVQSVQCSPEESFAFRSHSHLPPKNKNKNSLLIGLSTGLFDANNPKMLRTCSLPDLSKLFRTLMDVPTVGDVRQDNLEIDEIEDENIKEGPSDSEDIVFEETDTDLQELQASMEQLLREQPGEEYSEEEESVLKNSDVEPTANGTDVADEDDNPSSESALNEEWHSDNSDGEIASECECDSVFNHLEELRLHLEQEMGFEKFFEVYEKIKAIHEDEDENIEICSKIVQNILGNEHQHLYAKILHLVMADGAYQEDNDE
Sequence of Serine/threonine-protein kinase MARK1 (Homo sapiens) (Q9P0L2 whole entry, looked up): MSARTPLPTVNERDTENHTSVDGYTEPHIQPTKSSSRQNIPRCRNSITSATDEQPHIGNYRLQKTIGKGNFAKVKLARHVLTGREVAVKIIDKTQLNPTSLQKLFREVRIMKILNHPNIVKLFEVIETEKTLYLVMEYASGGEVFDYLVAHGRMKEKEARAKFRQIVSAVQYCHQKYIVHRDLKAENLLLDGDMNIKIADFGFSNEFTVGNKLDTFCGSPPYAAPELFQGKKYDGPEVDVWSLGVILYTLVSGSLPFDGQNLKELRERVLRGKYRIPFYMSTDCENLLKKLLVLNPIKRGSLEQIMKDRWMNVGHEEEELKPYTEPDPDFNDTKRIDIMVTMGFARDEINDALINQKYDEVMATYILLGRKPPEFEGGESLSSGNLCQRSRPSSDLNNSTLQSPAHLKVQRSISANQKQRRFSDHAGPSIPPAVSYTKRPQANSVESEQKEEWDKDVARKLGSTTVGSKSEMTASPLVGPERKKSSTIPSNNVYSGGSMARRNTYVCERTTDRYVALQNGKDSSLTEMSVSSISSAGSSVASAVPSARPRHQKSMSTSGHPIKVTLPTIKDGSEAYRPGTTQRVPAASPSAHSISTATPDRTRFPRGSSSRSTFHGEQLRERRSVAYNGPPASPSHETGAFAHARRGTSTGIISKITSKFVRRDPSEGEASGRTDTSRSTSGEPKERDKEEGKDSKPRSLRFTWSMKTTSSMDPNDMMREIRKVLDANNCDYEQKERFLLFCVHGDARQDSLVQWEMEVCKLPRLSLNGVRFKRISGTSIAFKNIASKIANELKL
Sequence of Aurora kinase C (Homo sapiens) (Q9UQB9 whole entry): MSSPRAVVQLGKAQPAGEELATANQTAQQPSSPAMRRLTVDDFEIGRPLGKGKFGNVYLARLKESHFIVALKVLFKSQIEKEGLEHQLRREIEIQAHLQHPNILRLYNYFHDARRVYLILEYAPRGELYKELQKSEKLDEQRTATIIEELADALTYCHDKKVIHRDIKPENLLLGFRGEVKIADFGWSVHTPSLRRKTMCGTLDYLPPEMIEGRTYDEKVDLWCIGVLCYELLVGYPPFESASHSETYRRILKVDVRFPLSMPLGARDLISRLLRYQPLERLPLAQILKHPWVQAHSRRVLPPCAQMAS
Sequence of Activin receptor type-1B (Homo sapiens) (P36896 whole entry): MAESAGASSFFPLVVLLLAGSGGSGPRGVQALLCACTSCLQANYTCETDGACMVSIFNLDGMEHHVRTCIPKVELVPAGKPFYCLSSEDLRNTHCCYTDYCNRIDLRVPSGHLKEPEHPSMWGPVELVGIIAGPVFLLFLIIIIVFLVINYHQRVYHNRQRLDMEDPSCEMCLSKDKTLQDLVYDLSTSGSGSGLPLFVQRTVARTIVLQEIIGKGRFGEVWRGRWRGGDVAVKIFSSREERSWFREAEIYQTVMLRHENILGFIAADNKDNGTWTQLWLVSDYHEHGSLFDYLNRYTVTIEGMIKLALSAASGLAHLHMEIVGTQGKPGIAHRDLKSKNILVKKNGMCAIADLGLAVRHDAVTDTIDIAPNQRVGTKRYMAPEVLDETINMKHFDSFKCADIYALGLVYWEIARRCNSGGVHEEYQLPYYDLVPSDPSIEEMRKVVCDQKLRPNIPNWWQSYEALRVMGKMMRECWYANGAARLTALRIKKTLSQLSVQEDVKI
Sequence of Mitogen-activated protein kinase 13 (Homo sapiens) (O15264 whole entry): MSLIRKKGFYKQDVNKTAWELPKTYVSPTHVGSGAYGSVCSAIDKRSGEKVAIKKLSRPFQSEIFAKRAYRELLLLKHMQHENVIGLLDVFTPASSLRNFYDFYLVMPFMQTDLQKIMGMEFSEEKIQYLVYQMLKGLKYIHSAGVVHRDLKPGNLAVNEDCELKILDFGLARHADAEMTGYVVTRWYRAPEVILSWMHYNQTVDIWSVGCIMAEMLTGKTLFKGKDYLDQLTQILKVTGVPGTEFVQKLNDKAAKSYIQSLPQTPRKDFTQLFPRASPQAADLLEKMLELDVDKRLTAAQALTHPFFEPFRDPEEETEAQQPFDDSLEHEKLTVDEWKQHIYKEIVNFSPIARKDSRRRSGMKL

CC(C)(O)c1cncc(-c2nc3ccc(F)cc3n2C2CC2)c1 [MSD-CYP11B2]
inactive: residual activity [1] 99% | residual activity [2] 100% | residual activity [3] 100% | residual activity [4] 100% | residual activity [5] 100% | residual activity [6] 100% | residual activity [7] 100% | residual activity [8] 100% | residual activity [9] 100% | residual activity [10] 100% | residual activity [11] 90% | residual activity [12] 83% | residual activity [13] 79% | residual activity [14] 86% | residual activity [15] 86% | residual activity [16] 100% | residual activity [17] 100% | residual activity [18] 100% | residual activity [19] 100% | residual activity [20] 100% | residual activity [21] 100% | residual activity [22] 100% | residual activity [23] 100% | residual activity [24] 100% | residual activity [25] 100% | residual activity [26] 100% | residual activity [27] 100% | residual activity [28] 58% | residual activity [29] 77% | residual activity [30] 100% | residual activity [31] 100% | residual activity [32] 100% | residual activity [33] 100% | residual activity [34] 100% | inhibition [35] -4.49% | inhibition [36] 22.7% | inhibition [37] -1%

FC(F)(F)c1ccc2c(c1)nc(-c1cccnc1)n2C1CC1 [MSD-CYP11B2-Negative-control]
inactive: residual activity [1] 98% | residual activity [2] 100% | residual activity [3] 100% | residual activity [4] 100% | residual activity [5] 100% | residual activity [6] 100% | residual activity [7] 100% | residual activity [8] 100% | residual activity [9] 100% | residual activity [10] 100% | residual activity [11] 100% | residual activity [12] 92% | residual activity [13] 76% | residual activity [14] 81% | residual activity [15] 85% | residual activity [16] 100% | residual activity [17] 100% | residual activity [18] 100% | residual activity [19] 100% | residual activity [20] 100% | residual activity [21] 100% | residual activity [22] 100% | residual activity [23] 100% | residual activity [24] 94% | residual activity [25] 100% | residual activity [26] 97% | residual activity [27] 100% | residual activity [28] 98% | residual activity [29] 76% | residual activity [30] 100% | residual activity [31] 99% | residual activity [32] 100% | residual activity [33] 100% | residual activity [34] 100% | inhibition [35] -7.11% | inhibition [36] 26.5%
